Results from PMC8147984, “Effects of Sponge-Derived Alkaloids on Activities of the Bacterial α-D-Galactosidase and Human Cancer Cell α-N-Acetylgalactosaminidase” (Biomedicines, 2021).

Tests used:
[1] = target: T1, α-D-galactosidase (α-PsGal) (Pseudoalteromonas sp. KMM 701, UniProt Q19AX0); assay: Irreversibility of α-PsGal inhibition (dialysis experiment); type: biochemical; details: dialysis against buffer for 60 h at 4 °C; activity did not recover
T1 sequence (Q19AX0 1-710): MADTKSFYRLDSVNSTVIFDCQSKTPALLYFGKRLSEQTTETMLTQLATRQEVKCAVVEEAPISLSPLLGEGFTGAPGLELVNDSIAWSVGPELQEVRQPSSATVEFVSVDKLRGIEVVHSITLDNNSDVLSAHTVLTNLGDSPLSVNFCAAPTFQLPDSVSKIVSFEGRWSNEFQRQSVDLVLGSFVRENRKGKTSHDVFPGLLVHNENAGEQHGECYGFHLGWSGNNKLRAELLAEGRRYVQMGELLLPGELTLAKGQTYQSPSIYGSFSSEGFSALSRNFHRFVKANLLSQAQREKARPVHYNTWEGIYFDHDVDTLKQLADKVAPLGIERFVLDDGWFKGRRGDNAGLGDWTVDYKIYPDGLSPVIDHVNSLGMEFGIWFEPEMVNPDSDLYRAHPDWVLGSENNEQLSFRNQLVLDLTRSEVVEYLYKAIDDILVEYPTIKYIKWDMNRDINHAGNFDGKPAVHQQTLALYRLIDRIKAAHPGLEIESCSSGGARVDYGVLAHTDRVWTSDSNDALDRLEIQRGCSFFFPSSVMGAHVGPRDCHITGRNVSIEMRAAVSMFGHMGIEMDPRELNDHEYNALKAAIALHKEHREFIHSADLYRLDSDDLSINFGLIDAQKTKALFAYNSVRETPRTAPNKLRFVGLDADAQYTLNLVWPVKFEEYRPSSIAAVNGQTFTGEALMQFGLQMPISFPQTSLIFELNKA
Procedure: To determine the reversibility of the α-PsGal activity inhibition by alkaloids 2, 3, 8, and 9 15 µL of 0.625 mM aqueous solution of the compounds 2 and 3 or 6 µL of 2.5 mM ethanol solution of the compound 8 and 9 were added to 75 µL of the enzyme solution in 0.05 M sodium phosphate buffer (pH 7.0). After 30 min of the mixture incubation the aliquot of 30 µL was taken and 120 µL of 3.3 mM pNPG solution were added to initiate the reaction; the reaction was stopped by addition of 150 µL of 1M Na2CO3. The α-D-galactosidase activity was determined, as described above. The remaining reaction mixture was dialyzed against 1 L of 0.02 M sodium phosphate buffer (pH 7.0) for 60 h at 4 °C. The buffer was changed 3 times during the dialysis. The enzyme activity was determined, as described above. A sample of α-PsGal treated with H2O or EtOH in the absence of the inhibitor (75 µL of the enzyme solution and 15 µL of H2O or 6 µL of EtOH, respectively) was dialyzed and used as a control for determination of the initial activity. The experiment was carried out in two replicates. The residual activity was calculated as described above.

[2] = target: T1, α-D-galactosidase (α-PsGal); assay: Kinetic studies of α-PsGal inactivation; type: biochemical; details: pH 7.0, 20 °C; for Ki / kinact: Hill equation fit; for Ki: read-out: Ki, equilibrium inhibition constant; for kinact: read-out: kinact, inactivation rate constant (converted)
Procedure: The kinetic parameters Ki and kinact were determined by classic methods. The inactivation of α-PsGal was monitored by incubation of the enzyme with different concentrations of alkaloids in […] sodium phosphate buffer, pH 7.0, at 20 °C in total volume of 30 µL (25 µL and 5 µL of α-PsGal and alkaloids, respectively), which were placed in cells of 96 cells plate. After preincubation of enzyme-inhibitor mixture for 0.5, 5, 10, 15, 20, 25, or 30 min […] the fraction of remaining enzyme activity was measured as a function of time by addition to the inactivation mixture 120 µL of a solution of pNP-α-Gal (3.3 mM). The pseudo-first-order rate constant of inactivation (kobs) was determined for each inactivator concentration as the slope of the v/v0 dependence on the incubation time in semilogarithmic coordinates. The Excel software was used for these calculations. The second order rate constants for the inactivation process were determined by fitting the dependences of the kobs values on the concentration of the inactivators to the Hill or Michaelis–Menten equations. An analysis of the graphs and the choice of models for calculation of inhibition constants (Ki, mM) and inactivation rate constants (kinact, min^–1) were performed with the Origin computer software.

| SMILES | irreversibility of α-PsGal inhibition [1] | n, Hill's coefficient of cooperativity [2] | Ki [2] [µM] | kinact [2] [s⁻¹] | n, Hill's coefficient of cooperativity ([2]; listed as 9-demethylaaptamine(3)) | n, Hill's coefficient of cooperativity ([2]; listed as isoaaptamine (2)) |
| --- | --- | --- | --- | --- | --- | --- |
| COc1cc2ccnc3c2c(c1O)NC=C3 [Compound 3, 9-demethylaaptamine] | irreversibly inactivate | 0.84 | 300 ± 77 | 0.00153 | 0.84 ± 0.12 |  |
| COc1cc2ccnc3c2c(c1O)N(C)C=C3 [Compound 2, isoaaptamine] | irreversibly inactivate | 2.17 | 2.7 ± 0.42 | 0.002 |  | 2.17 ± 0.55 |
